{"source": "patent US10759797B2", "about": "“Pharmaceutically acceptable salt of EGFR inhibitor, crystal form thereof, preparation method therefor and application thereof” (Wuxi Shuangliang Biotechnology Co., Ltd., priority 2017, dated 2020)", "format_in_all_cases": "physicochemical", "key": {"[1]": {"assay": "One month accelerated stability study at 40° C./75% RH (shape, purity, XRPD)", "conditions": "for XRPD pattern (0 month versus 1 month) / Appearance, 1 month / Purity (%), 1 month: after 1 month at 40° C./75% RH; for Appearance, 0 month / Purity (%), 0 month: start of study (0 month)", "procedure": "The six pharmaceutically acceptable salts of EGFR inhibitor in Examples 1 to 6 were placed in a condition of 40° C./75% RH, and a one month accelerated stability study was carried out. Samples were taken at the end of 0 and 1 month respectively, and emphasis was placed upon the shape, purity and crystal form stability (XRPD pattern) of the samples.\nStable refers to no occurrence of degradation and no detection of transformation to other crystal forms by analytical means such as chromatography and XRPD."}, "[2]": {"assay": "Solubility study in water (saturated solutions, HPLC linear equation; Pharmacopoeia and BCS classification)", "conditions": "in water and artificial gastric fluid"}, "[3]": {"assay": "Hygroscopicity study of crystal forms (Chinese Pharmacopoeia 2015, part 4, appendix 9103)", "conditions": "for Hygroscopicity as compared with that of the EGFR inhibitor present in a free base form: 25° C./RH 80%; for Weight gain over 6 hours (%) / Weight gain over 24 hours (%) / Hygroscopicity: 25° C.±1° C., relative humidity 80%±2%; for Hygroscopicity: Pharmacopoeia class", "procedure": "Hygroscopicity comparison study was carried out for various pharmaceutically acceptable salts of EGFR inhibitor present in the form of crystal in Examples 1 to 3 and 5 to 6, the amorphous EGFR inhibitor phosphate salt in Example 4, and the EGFR inhibitor present in a free base form. Tests were conducted according to the method in the Pharmacopoeia of the People's Republic of China, 2015 edition, part 4, appendix 9103 (temperature: 25° C.±1° C., relative humidity: 80%±2%), and the results were as shown in Table 6.\nWith regard to the description of hygroscopic properties and definition of hygroscopic weight gain, refer to the Pharmacopoeia of the People's Republic of China, 2015 edition, part 4, appendix 9103, experimental guideline of drug hygroscopicity, herein descried by way of example as follows.\nDeliquescence: absorb enough water to form a liquid.\nVery hygroscopic: hygroscopic weight gain […] 15%.\nHygroscopic: hygroscopic weight gain less than 15% but not less than 2%.\nNon- or almost non-hygroscopic: hygroscopic weight gain less than 0.2%."}, "[4]": {"assay": "Solubility study in water (saturated solutions, HPLC linear equation; Pharmacopoeia and BCS classification)", "conditions": "for BCS level (Do): Do=(Mo/Vo)/Cs, Mo 80 mg, Vo about 250 ml, Do≤1 solubility high, Do>1 low; for Solubility in water, 1 h / Solubility in water, 4 h / Solubility in water, 24 h: saturated solution; for Solubility in water, 1 h: standing 1 hour; for Solubility in water, 4 h: standing 4 hours; for Solubility in water, 24 h: standing 24 hours", "source_text": "(§1) Various pharmaceutically acceptable salts of EGFR inhibitor present in form of crystal in Examples 1 to 3 and 5 to 6 were classified with reference to the relevant requirements of the Pharmacopoeia of the People's Republic of China and the Bio-pharmaceutics Classification System (BCS).\n(§2) (a) Relevant Requirements of Solubility in the Pharmacopoeia of the People's Republic of China, 2015 Edition, General Notices:\n(§3) (b) Relevant Requirements of Solubility in BCS: Do=(Mo/Vo)/Cs;\n(§4) wherein Do: dose index; Mo: highest single dose of the drug (with reference to the relevant dose of osimertinib, tentatively set to 80 mg); Vo: the volume of body fluid required for dissolving the drug (about 250 ml); Cs: saturated solubility of the drug;\n(§5) if Do≤1, solubility is high; and if Do>1, solubility is low.\n(§6) Using an EGFR inhibitor free base as a control, linear regression was carried out by plotting peak area versus concentration, and the corresponding linear equation was obtained in the range of 0.025 to 1.5 mg/ml: A=19775.0411c+2.4256, r=1.0000.\nWater was used as solvent. An appropriate amount of the EGFR inhibitor mesylate salt, p-toluenesulfonate salt, phosphate salt, hydrochloride salt and citrate salt prepared in Examples 1 to 3 and 5 to 6 was weighed, and prepared into saturated solutions. Samples were taken after standing for 1 hour, 4 hours, and 24 hours, respectively, and the concentration of each sample in saturation state was calculated according to the linear equation."}, "[5]": {"assay": "Solubility study in artificial gastric fluid (saturated solutions, HPLC linear equation; Pharmacopoeia and BCS classification)", "conditions": "for Pharmacopoeia of the People's Republic of China Solubility level / Solubility in artificial gastric fluid, 1 h / Solubility in artificial gastric fluid, 4 h / Solubility in artificial gastric fluid, 24 h / BCS level (Do): artificial gastric fluid; for Solubility in artificial gastric fluid compared with water: artificial gastric fluid versus water; for Solubility in artificial gastric fluid, 1 h / Solubility in artificial gastric fluid, 4 h / Solubility in artificial gastric fluid, 24 h: saturated solution; for Solubility in artificial gastric fluid, 1 h: standing 1 hour; for Solubility in artificial gastric fluid, 4 h: standing 4 hours; for Solubility in artificial gastric fluid, 24 h: standing 24 hours; for BCS level (Do): Do=(Mo/Vo)/Cs, Mo 80 mg, Vo about 250 ml, Do≤1 solubility high, Do>1 low; for Degradation in the solubility study: water and artificial gastric fluid, up to 24 hours", "source_text": "as §1, §2, §3, §4, §5, §6\nArtificial gastric fluid was used as solvent. An appropriate amount of the EGFR inhibitor mesylate salt (crystal form A), p-toluenesulfonate salt (crystal form B), phosphate salt (crystal form C), phosphate salt (amorphous), hydrochloride salt (crystal form C), and citrate salt (crystal form E) prepared in Examples 1 to 6 was weighed, and prepared into saturated solutions. Samples were taken after standing for 1 hour, 4 hours, and 24 hours, respectively, and the concentration of each sample in saturation state was calculated according to the linear equation."}, "[6]": {"conditions": "listed as mesylate salt (crystal form A)"}, "[7]": {"conditions": "listed as citrate salt (crystal form E)"}}, "note": "Structures can show the parent of a compound that is named as a salt."}
{"compound": "C=CC(=O)Nc1cc(Nc2nccc(-c3cn(C)c4cccnc34)n2)c(OC)cc1N(C)CCN(C)C", "note": "[mesylate salt]", "values": [{"measurement": "XRPD pattern (0 month versus 1 month)", "setting": "[1]", "value": "consistent"}, {"measurement": "Appearance, 1 month", "setting": "[1]; [6]", "value": "light brown solid"}, {"measurement": "Purity (%), 1 month", "setting": "[1]; [6]", "value": 99.2, "unit": "%"}, {"measurement": "Appearance, 0 month", "setting": "[1]; [6]", "value": "light brown solid"}, {"measurement": "Purity (%), 0 month", "setting": "[1]; [6]", "value": 99.0, "unit": "%"}, {"measurement": "Solubility with reference to Pharmacopoeia solubility classification", "setting": "[2]", "value": "high"}, {"measurement": "Hygroscopicity as compared with that of the EGFR inhibitor present in a free base form", "setting": "[3]; listed as mesylate salt crystal form A", "value": "higher hygroscopicity"}, {"measurement": "Weight gain over 6 hours (%)", "setting": "[3]", "value": 6.86, "unit": "%"}, {"measurement": "Weight gain over 24 hours (%)", "setting": "[3]", "value": 10.64, "unit": "%"}, {"measurement": "Hygroscopicity", "setting": "[3]", "value": "hygroscopic"}, {"measurement": "Pharmacopoeia of the People's Republic of China Solubility level", "setting": "[4]", "value": "freely soluble"}, {"measurement": "BCS level (Do)", "setting": "[4]", "value": "0.0013 < 1"}, {"measurement": "Solubility in water, 1 h", "setting": "[4]", "value": 223.02, "unit": "mg/mL"}, {"measurement": "Solubility in water, 4 h", "setting": "[4]", "value": 224.00, "unit": "mg/mL"}, {"measurement": "Solubility in water, 24 h", "setting": "[4]", "value": 255.75, "unit": "mg/mL"}, {"measurement": "Pharmacopoeia of the People's Republic of China Solubility level", "setting": "[5]", "value": "freely soluble"}, {"measurement": "Solubility in artificial gastric fluid compared with water", "setting": "[5]", "value": "higher solubility in artificial gastric fluid than in water"}, {"measurement": "Solubility in artificial gastric fluid, 1 h", "setting": "[5]", "value": 248.77, "unit": "mg/mL"}, {"measurement": "Solubility in artificial gastric fluid, 4 h", "setting": "[5]", "value": 370.37, "unit": "mg/mL"}, {"measurement": "Solubility in artificial gastric fluid, 24 h", "setting": "[5]", "value": 379.12, "unit": "mg/mL"}, {"measurement": "BCS level (Do)", "setting": "[5]", "value": "0.0008 < 1"}, {"measurement": "Degradation in the solubility study", "setting": "[5]", "value": "no significant degradation"}]}
{"compound": "C=CC(=O)Nc1cc(Nc2nccc(-c3cn(C)c4cccnc34)n2)c(OC)cc1N(C)CCN(C)C", "note": "[citrate salt]", "values": [{"measurement": "XRPD pattern (0 month versus 1 month)", "setting": "[1]", "value": "consistent"}, {"measurement": "Appearance, 1 month", "setting": "[1]; [7]", "value": "light grey solid"}, {"measurement": "Purity (%), 1 month", "setting": "[1]; [7]", "value": 99.1, "unit": "%"}, {"measurement": "Appearance, 0 month", "setting": "[1]; [7]", "value": "light grey solid"}, {"measurement": "Purity (%), 0 month", "setting": "[1]; [7]", "value": 98.9, "unit": "%"}, {"measurement": "Solubility with reference to Pharmacopoeia solubility classification", "setting": "[2]", "value": "high"}, {"measurement": "Hygroscopicity as compared with that of the EGFR inhibitor present in a free base form", "setting": "[3]; listed as citrate salt crystal form E", "value": "comparable hygroscopicity"}, {"measurement": "Weight gain over 6 hours (%)", "setting": "[3]", "value": 2.23, "unit": "%"}, {"measurement": "Weight gain over 24 hours (%)", "setting": "[3]", "value": 2.48, "unit": "%"}, {"measurement": "Hygroscopicity", "setting": "[3]", "value": "hygroscopic"}, {"measurement": "Pharmacopoeia of the People's Republic of China Solubility level", "setting": "[4]", "value": "freely soluble"}, {"measurement": "BCS level (Do)", "setting": "[4]", "value": "0.0024 < 1"}, {"measurement": "Solubility in water, 1 h", "setting": "[4]", "value": 143.59, "unit": "mg/mL"}, {"measurement": "Solubility in water, 4 h", "setting": "[4]", "value": 137.34, "unit": "mg/mL"}, {"measurement": "Solubility in water, 24 h", "setting": "[4]", "value": 133.57, "unit": "mg/mL"}, {"measurement": "Pharmacopoeia of the People's Republic of China Solubility level", "setting": "[5]", "value": "freely soluble"}, {"measurement": "Solubility in artificial gastric fluid compared with water", "setting": "[5]", "value": "higher solubility in artificial gastric fluid than in water"}, {"measurement": "Solubility in artificial gastric fluid, 1 h", "setting": "[5]", "value": 168.51, "unit": "mg/mL"}, {"measurement": "Solubility in artificial gastric fluid, 4 h", "setting": "[5]", "value": 196.47, "unit": "mg/mL"}, {"measurement": "Solubility in artificial gastric fluid, 24 h", "setting": "[5]", "value": 176.88, "unit": "mg/mL"}, {"measurement": "BCS level (Do)", "setting": "[5]", "value": "0.0018 < 1"}, {"measurement": "Degradation in the solubility study", "setting": "[5]", "value": "no significant degradation"}]}
